# Legend:
# LVS = details: standard conditions; cited from earlier work
# NIH B38 = details: cited from earlier work
# F. tularensis LVS = format: cell-based, Francisella tularensis holarctica Live Vaccine Strain; details: for MIC: pH 7.1
# Francisella novicida [1] = details: cited from earlier work
# Francisella philomiragia = format: cell-based
# F. novicida = format: cell-based, Francisella novicida; details: for MIC: pH 7.1
# [2] = tested on: Galleria mellonella (waxworm) larvae; details: in vivo
# Francisella novicida [3] = details: cited from earlier work; remark: listed apart in the source
# [4] = tested on: Francisella tularensis tularensis Schu4; details: cited from earlier work
# [5] = tested on: Francisella tularensis holarctica Live Vaccine Strain; details: cited from earlier work
Molecule,MIC (LVS) [mg/L],MIC (NIH B38) [mg/L],This study Polymyxin B (F. tularensis LVS),MIC (F. tularensis LVS) [mg/L],Kirby Bauer Polymyxin B (Francisella novicida [1]) [mm],This study Polymyxin B (Francisella philomiragia),This study Polymyxin B (F. novicida),MIC (F. novicida) [mg/L],"Toxicity, survival of waxworms [2]",MIC (Francisella novicida [3]) [mg/L],Kirby Bauer Polymyxin B [4] [mm],This study Colistin (F. tularensis LVS),This study Colistin (Francisella philomiragia),This study Colistin (F. novicida),Kirby Bauer Colistin [5] [mm]
"[H]/N=C(/N)N[C@H]1[C@H](O)[C@@H](O)[C@H](O[C@@H]2O[C@@H](C)[C@](O)(C=O)[C@H]2O[C@@H]2O[C@@H](CO)[C@H](O)[C@@H](O)[C@@H]2NC)[C@@H](N/C(N)=N\[H])[C@@H]1O [Streptomycin, D-Streptamine, O-2-deoxy-2-(methylamino)-α-L-glucopyranosyl-(1->2)-O-5-deoxy-3-C-formyl-α-L-lyxofuranosyl-(1->4)-N1,N3-bis(aminoiminomethyl)-]",0.38,0.25,,,,,,,,,,,,,
Polymyxin B,,,256,256,19,1024,256,256,killed the waxworms,38,10,,,,
Colistin,,,,>1024,,,,1024,killed the waxworms,,,> 1024,> 1024,~1024,0

# Source: patent publication US20230193192A1 (priority 2021, published 2023)
